Data published in US8536222B2, “Addition compounds of guanidinoacetic acid” (AlzChem AG, priority 2005, dated 2013).

Columns and labels:
fattened chicken = assay: feed for fattened chicken, 42 day fattening period; assay type: in vivo; conditions: 0.2% by weight in air-dried feed
Experimental: • 2.1 A formulation consisting of 5000 mg guanidinoacetic acid malate and 5000 mg inulin was introduced into a typical formulation of feed pellets as a feed supplement for horses. • 2.2 A formulation consisting of 7000 mg guanidinoacetic acid lactate, 750 mg carnitine tartrate, 100 mg sucrose stearate, 160 mg talcum and 1090 mg fructose was introduced into the basic bulk for dog biscuits. • 2.3 The following formulation was introduced homogenously as a master batch into a commercially canned cat food mixture: 3000 mg guanidinoacetic acid citrate, 3000 mg creatine, 40 mg magnesium stearate, 25 mg carboxymethyl-cellulose and […] lactose. • 2.4 Feed for fattened chicken
In addition the consumption of feed decreased by about 6% compared to previous feeding methods.

[1] = 1 g in water at 15° C.; cited from earlier work
solubility in water = assay type: physicochemical; conditions: water at 20° C.
[2] = test system: creatine content in muscles; conditions: rats, diets containing about 0.36 g/kg; cited from earlier work

Structure (SMILES)	decrease of consumption of feed compared to previous feeding methods (fattened chicken)	increase of end weight compared to previous feeding methods without guanidinoacetic acid (fattened chicken) [%]	meat quality (fattened chicken)	nature of the increase in weight (fattened chicken)	solubility in water (ml water needed for 1 g) [1] [mL]	dissolves in water (solubility in water)	increase of creatine content in muscles compared to the comparison group [2] [%]
N=C(N)NCC(=O)O.O=C(O)CCCCC1CCSS1 (stereo not shown) [guanidinoacetic acid lipoate]	about 6%	5	improved quality	solely by a meat increase	–	–	–
N=C(N)NCC(=O)O [guanidinoacetic acid]	–	–	–	–	278	very poorly	39
